Data as given in patent publication EP1207159A1, “Aromaheterocyclic derivatives as dopamine D4 receptor antagonists” (TAISHO PHARMACEUTICAL CO. LTD, priority 1993, dated 1999).
Where a name gives a salt, the structure may show the parent alone.

Experiments:
human D4.2 receptor = target: T1, human D4.2 receptor (Homo sapiens, UniProt P21917, DEL265-296); assay: Dopamine D4 receptor binding assay ([3H]spiperone, CHO cell membranes); conditions: 50% inhibition of [3H]spiperone binding; CHO cell membranes expressing human D4.2 receptor; 27°C, 2 hours
T1 construct: expressed in transfected cells; host or cells: CHO cells (membranes)
T1 sequence (P21917 with tags, fused parts or gaps DEL265-296): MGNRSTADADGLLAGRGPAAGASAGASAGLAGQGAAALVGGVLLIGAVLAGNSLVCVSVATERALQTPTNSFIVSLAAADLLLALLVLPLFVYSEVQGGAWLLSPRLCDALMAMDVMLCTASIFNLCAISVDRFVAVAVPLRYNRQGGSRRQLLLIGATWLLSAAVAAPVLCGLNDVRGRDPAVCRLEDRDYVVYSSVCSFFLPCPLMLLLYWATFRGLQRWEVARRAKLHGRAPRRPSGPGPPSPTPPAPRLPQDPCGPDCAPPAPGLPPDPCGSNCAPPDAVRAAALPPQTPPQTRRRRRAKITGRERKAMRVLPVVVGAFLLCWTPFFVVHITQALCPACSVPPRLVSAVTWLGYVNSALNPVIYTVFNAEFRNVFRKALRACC
Protocol: Chinese hamster ovarium (CHO) cell membranes wherein human D4.2 receptor was expressed were used as a receptor preparation.
[^3H]spiperone was used as [^3H]-labeled ligand.
A binding reaction using the [^3H]-labeled ligand was carried out according to the following method as described in Eur. J. Pharmacol., 233, 173(1993).
Dopamine D4.2 Receptor Binding Assay: The CHO cell membranes wherein human D4.2 receptor was expressed, [^3H]spiperone ([…]) and each test drug were reacted in 50 mM Tris-hydrochloric acid buffer (pH 7.4) containing 5 mM EDTA, 1.5 mM CaCl2, 5 mM KCl and 120 mM NaCl at 27°C for 2 hours.
After completion of the reaction, the reaction solution was filtered by suction through a glass filter (GF/B), and the radioactivity on the filter was measured by a liquid scintillation spectrometer.
The binding under the reaction in the presence of 10 µM haloperidol was defined as non-specific binding of [^3H]spiperone, and the difference between the total binding and the non-specific binding was defined as specific binding.

Dopamine D2 Receptor = target: T2, Dopamine D2 Receptor (Rattus norvegicus, UniProt P61169); assay: Dopamine D2 receptor binding assay ([3H]raclopride, rat striatum membrane); conditions: 50% inhibition of [3H]raclopride (1 nM) binding, 25°C, an hour
T2 construct: Rat striatum was homogenized in 50 mM Tris-hydrochloric acid buffer (pH 7.4), centrifuged at 48,000 × g; from tissue; host or cells: rat striatum membrane
T2 sequence (P61169 whole entry): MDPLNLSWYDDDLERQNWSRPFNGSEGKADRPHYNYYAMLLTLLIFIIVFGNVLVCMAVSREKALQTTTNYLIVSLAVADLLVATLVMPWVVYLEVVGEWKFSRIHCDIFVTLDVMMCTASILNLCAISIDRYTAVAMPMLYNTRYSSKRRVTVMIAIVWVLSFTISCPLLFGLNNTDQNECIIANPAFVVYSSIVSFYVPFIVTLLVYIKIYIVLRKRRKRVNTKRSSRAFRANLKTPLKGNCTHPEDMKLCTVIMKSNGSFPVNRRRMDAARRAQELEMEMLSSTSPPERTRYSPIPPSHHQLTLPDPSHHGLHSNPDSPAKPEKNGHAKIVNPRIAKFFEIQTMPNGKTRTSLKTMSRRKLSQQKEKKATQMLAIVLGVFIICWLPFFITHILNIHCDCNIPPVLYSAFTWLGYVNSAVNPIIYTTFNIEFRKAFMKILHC
Protocol: Rat striatum membrane was used as a receptor preparation.
[^3H]raclopride was used as [^3H]-labeled ligand.
A binding reaction using the [^3H]-labeled ligand was carried out according to the following method as described in Mol. J. Pharmacol., 43, 749(1993).
Preparation of Receptor Preparation: Rat striatum was homogenized in 50 mM Tris-hydrochloric acid buffer (pH 7.4), centrifuged at 48,000 × g, and the precipitate was washed once with a Tris-hydrochloric acid buffer. The precipitate was suspended in 50 mM Tris-hydrochloric acid buffer (pH 7.4) containing 120 mM NaCl, 1.5 mM KCl, 2 mM CaCl2 and 1 mM MgCl2 to give a membrane preparation.
Dopamine D2 Receptor Binding Assay: The membrane preparation (0.5 mg of protein/ml), [^3H]raclopride (1 nM) and each test drug were reacted at 25°C for an hour.
After completion of the reaction, the reaction solution was filtered by suction through a glass filter (GF/B), and the radioactivity on the filter was determined by a liquid scintillation spectrometer.
The binding under the reaction in the presence of 10 µM haloperidol was defined as non-specific binding of [^3H]raclopride, and the difference between total binding and non-specific binding was defined as specific binding. […]

| Compound | IC50 (human D4.2 receptor) [nM] | IC50 (Dopamine D2 Receptor) [nM] |
| --- | --- | --- |
| Fc1ccc(-c2ncncc2CCN2CCC(=Cc3cccc(F)c3)CC2)cc1 [Compound A-11] | 4.53 | 521 |
| CSc1ncc(CCN2CCC(=Cc3ccccc3F)CC2)c(-c2ccc(F)cc2)n1 [Compound A-14, 4-(4-fluorophenyl)-5-[2-[4-(2-fluorobenzylidene)piperidin-1-yl]ethyl]-2-methylthiopyrimidine dihydrochloride] | 12.6 | 148 |
| Fc1ccc(C=C2CCN(CCc3cn[nH]c3-c3ccccc3)CC2)cc1 [Compound A-05] | 1.12 | 89 |
